Three compounds from patent US6313180A, “Steroid compounds having contraceptive and anti-osteoporosis activity” (priority 1997, dated 2001) can be followed below.

Assay [1] has as its target T1, human estradiol (E) receptor (Homo sapiens, UniProt P03372).
T1 construct: present in human breast tumor cells (MCF-7 cells); endogenous in cells; host or cells: MCF-7 human breast tumor cells
T1 sequence (P03372 1-595): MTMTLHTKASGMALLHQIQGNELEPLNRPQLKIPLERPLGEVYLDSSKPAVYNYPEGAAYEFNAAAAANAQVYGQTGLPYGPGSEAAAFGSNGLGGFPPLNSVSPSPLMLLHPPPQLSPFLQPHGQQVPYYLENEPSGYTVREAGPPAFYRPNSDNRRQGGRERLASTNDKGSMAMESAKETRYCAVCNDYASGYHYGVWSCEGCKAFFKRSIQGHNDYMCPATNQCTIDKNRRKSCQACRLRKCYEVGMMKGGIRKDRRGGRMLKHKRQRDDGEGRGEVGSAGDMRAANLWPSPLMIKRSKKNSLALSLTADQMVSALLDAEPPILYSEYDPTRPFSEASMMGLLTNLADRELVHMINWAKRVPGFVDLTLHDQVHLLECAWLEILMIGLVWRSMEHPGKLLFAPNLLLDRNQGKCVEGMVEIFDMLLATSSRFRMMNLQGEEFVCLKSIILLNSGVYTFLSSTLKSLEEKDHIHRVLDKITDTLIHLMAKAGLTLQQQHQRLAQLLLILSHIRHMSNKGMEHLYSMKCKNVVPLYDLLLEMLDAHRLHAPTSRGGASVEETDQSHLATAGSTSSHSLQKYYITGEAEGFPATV
Type of assay: binding. The protocol:
The relative estradiol receptor binding affinity was measured in the same manner as described above but using 17βestradiol as a reference.
(§1) Several of the compounds according to the Examples I-VI, as well as other compounds according to the invention synthesized in analogous manner, were subjected to the tests described in the Examples VII and VIII. The results are described in the Table, in which the type of A-ring and the substitution at carbon atoms nos. 7, 11, and 17 is indicated. In the columns captioned E and P, the relative binding affinities for the estrogen and progesterone receptors are given; the ED50 results of the AllenDoisy and the McPhail tests have been indicated in μg/kg. In the column captioned "Osteoporosis", the ED50 results of the anti-osteoporosis test are given (dose in μg/kg, day, as described above).

The subject of assay [2] is human progesterone (P) receptor. As to the kind of experiment: Relative progesterone receptor binding affinity, cytoplasmic receptors of MCF-7 cells. Particulars: relative to (16α)-16-ethyl-21-hydroxy-19-norpregn-4-ene-3,20-dione, 16 h, 4° C.
The nature of assay [3]: Allen Doisy test for estrogenic activity in vivo. The settings on record: oral administration; estrogenic activity; read-out: AllenDoisy ED50.
Assay [4] is described as follows: McPhail test for progestagenic activity in vivo. Particulars: oral administration; progestagenic activity; read-out: McPhail ED50.
Another assay concerns ovariectomised rats. As to the kind of experiment: Prevention of ovariectomy-induced bone loss in rats (anti-osteoporosis test, pQCT trabecular bone mineral density). The settings on record: Rattus norvegicus, 672 h; oral administration; ovariectomised rats, once or twice daily for 4 weeks; 40-60% proportional difference in trabecular bone mineral density; read-out: Osteoporosis ED50. Type of assay: in vivo, rat (female Wistar).
From the text: Ovariectomy induces in rats bone loss, which is due to oestrogen deficiency. Administration of oestrogenic compounds prevents this effect. The test is used to evaluate a compound for anti-osteoporotic activity in ovariectomised rats. The effect on bone mass can be evaluated by peripheral Quantitave Computed Tomography (pQCT) measurement of trabecular bone mineral density.
Mature virgin female Wistar rats preferentially, 225-250 g. Strain: Hsd/Cpd:Wu, SPF-bred by Harlan, CPB, Zeist, The Netherlands.
On day 1 of the experiment the rats are weighed and distributed over the cages in order of body weight. The rat with the lowest body weight in the first cage and the heaviest rat in the last cage. Treatments are randomized over the rats per block. A block (group of 3+n treatments) consists of 1 Intact placebo rat, 1 OVX placebo rat, 1 OVX reference rat and 1 rat of each n treatments.
Sham-operation and ovariectomy are performed under ether anaesthesia. After recovery from the anaesthesia, within 24 h, vehicle, reference compound or test compound is administered once or twice daily for 4 weeks.
Trabecular bone mineral density (mg/cm^3) of the metaphyseal part of the femur was measured with a pQCT (peripheral Quantitative Computed Tomography machine; XCT 960A, Stratec, Birkenfeld, Germany) directly after autopsy on fresh tissue. Two 360° scans, which have, due to the X-ray beam, a standard thickness of 1 mm were taken. The scans have a resolution of 0.148×0.148 mm. One scan was taken at 5.5 mm from the distal end of the femur, where trabecular bone mineral density of the metaphyseal part was measured. The other scan was taken in the diaphysis at 13.5 mm from the distal end, which contains no trabecular bone. In the latter scan cortical bone mineral density and the geometrical parameters, such as cortical thickness, total bone area, outer and inner diameter, were determined. Intra- and inter-assay variation for the measurement of trabecular bone mineral density in the distal femur were about 2-3%. The XCT-960A was calibrated with a standard of hydroxyapatite embedded in acrylic plastic.
Ovariectomy causes a statistically significant decrease in trabecular bone mineral density (P≤0.05, 2 way ANOVA).
The active dose (ED50) is the dose where a mean proportional difference in trabecular bone mineral density between 40 and 60% is reached as compared to the sham and ovariectomised group.
as §1

By ED50 is commonly meant the midpoint of the dose-response relation. As for `CCC[C@@H]1Cc2cc(O)ccc2[C@H]2CC[C@@]3(C)[C@@H](C[C@H]4C[C@H](C)C[C@]43O)[C@H]12` [Code 38481, (4'S,7-alpha,16-beta, 17-beta)-3',4',5',16-tetrahydro-4'-methyl-7-propyl-17H-cyclopenta[16,17]estra-1,3,5(10)-trien-3,17-diol], in assay [1], the “Relative binding affinity to the human estradiol (E) receptor” value is reported as 23%. In addition, in assay [2], the “Relative binding affinity to the human progesterone (P) receptor” value stood at 6%. Also, the results for the ED50 (in assay [3]; in assay [4]; in the assay on ovariectomised rats) were 0.064 mg/kg, over 4 mg/kg and 0.125 mg/kg, respectively.
For `C[C@H]1C[C@@H]2C[C@H]3[C@@H]4[C@H](C)Cc5cc(O)ccc5[C@H]4CC[C@]3(C)[C@]2(O)C1` [Code 37893], in that order: 38%, 11%, 0.5 mg/kg, over 4 mg/kg and 0.5 mg/kg.
For the compound `CCC[C@@H]1Cc2cc(O)ccc2[C@H]2CC[C@@]3(C)[C@@H](C[C@H]4CCCC[C@]43O)[C@H]12` [Code 38515, (7-alpha,16-alpha,17-alpha)-7-propyl-16,24-cyclo-19,21-dinorchola-1,3,5(10)-trien-3,17-diol], the “Relative binding affinity to the human estradiol (E) receptor” value in assay [1] amounted to 16%. The “Relative binding affinity to the human progesterone (P) receptor” value in assay [2] came to 10%. For the same compound, the ED50 in assay [3] came out at 0.096 mg/kg; in assay [4] it was 4 mg/kg; in the assay on ovariectomised rats it was 0.19 mg/kg.
